Series [1] has as its system HeLa 229 human cervix carcinoma cells. Kind of series: MTT cytotoxicity in HeLa 229 cells (maximum non-toxic concentration). As to conditions: 48 h.
Description: HeLa 229 cells (ATCC) and Vero cells (ATCC) were cultured in minimal essential medium (MEM) (Sigma, Steinheim, Germany) with Earle salts supplemented with 10% heat-inactivated fetal bovine serum (FBS) (Gibco; ThermoFisher Scientific, Inc., Waltham, MA, USA), 2 mM L-glutamine, 1× non-essential amino acids, 8 mM HEPES, 25 μg/mL gentamycin and 1 µg/mL fungisone. The cells were incubated for 1 h at room temperature to reduce the edge effect and then overnight at 37 °C, 5% CO2 to obtain a 90% confluent cell layer.
The density of cells was 4 × 10^4 cells/well in 100 µL of MEM with Earle salts supplemented with 10% heat-inactivated FBS, 2 mM L-glutamine, 1× MEM vitamins, 1× non-essential amino acids, 0.005% Na-pyruvate, 25 µg/mL gentamycin, 1 µg/mL fungisone). The plates were incubated for 1 h room temperature and then overnight at 37 °C, 5% CO2. Next day, when the cells reached a ~90% confluency, the medium was supplemented with the serial 2-fold dilutions of the complexes in three parallel wells for each concentration. […] After 24 h incubation for Vero cells and 48 h incubation for HeLa cells, 10 µL of the MTT (Sigma, Steinheim, Germany) labelling reagent (final concentration 0.5 mg/mL) was added to each well and the plate was incubated for 4 h at 37 °C, 5% CO2. After the incubation, 100 µL of the solubilisation solution (10% SDS in 1 M HCl) was added into each well, and the plate was allowed to stand overnight in the incubator at 37 °C, 5% CO2.
Another series deals with ovarian carcinoma CH1. Details: method as in PMID 25856666. The settings on record: cited from earlier work.
A further series deals with Chlamydia trachomatis. Kind of series: Antichlamydia activity in HeLa cells, direct qPCR. The class given is cell-based. As to conditions: MOI 0.2, 48 h post infection. As to the method:
Then the Hela cells were infected with C. trachomatis at multiplicity of infection (MOI) 0.2, and were treated with different concentrations of the complexes for 24 h. After 48 h post infection, the cells were lysed and the chlamydial growth reducing effect of the complexes was evaluated by comparing the chlamydial genom concentration to that seen on untreated/infected HeLa cells. The C. trachomatis DNA concentration was measured by direct quantitative PCR (qPCR). The average cycle threshold (Ct) numbers were calculated and –Ct values are shown at the various complex concentrations in Figure 2 for 7 and 8 (and Figure S2 for the rest of the complexes). The maximum C. trachomatis growth corresponded to a DNA concentration of Ct ~19 value as detected by direct qPCR, as well.
The Chlamydia trachomatis strain was propagated and partially purified as described previously with some modifications. The infected cells were stained with monoclonal antichlamydia lipopolysaccharide (LPS) antibody (AbD Serotec, Oxford, UK) and fluorescein isothiocyanate-labeled anti-mouse IgG (Sigma-Aldrich) and the number of cells containing chlamydial inclusions was counted under a UV microscope, and the titer was expressed as the number of inclusion forming units (IFU)/mL. […]
For orientation: Quantitative PCR measures a nucleic acid by following its amplification.

For series [2], the system named is hormone dependent MCF-7 breast cancer cell line. The arrangement: method as in PMID 27357845, PMID 31461189, PMID 24189185. The settings on record: read-out: half maximal effective concentration, MCF-7; cited from earlier work.
Series [3] relates to array of cancer cell lines including cisplatin- and adriamycin-resistant strains. Details: method as in PMID 34065335. The settings on record: cited from earlier work.
Series [4] concerns Human herpes simplex virus-2 (HSV-2). The experiment in a line: Antiviral activity in Vero cells, direct qPCR. The class given is cell-based. As to the method:
Then Vero cells were infected with HSV-2 (at MOI 0.2) and were treated with the complexes for 24 h. After 24 h post infection, the cells were lysed and the virus yield reducing effect of the compounds was evaluated by comparing the yield to that seen on untreated Vero cells. The HSV-2 DNA concentration was measured by direct qPCR.
Human herpes simplex virus-2 (HSV-2) strain was (gift from Dr. Ilona Mucsi, University of Szeged, Szeged, Hungary) grown in Vero (ATCC) cells and the infectivity was measured by using the plaque titration method. The virus titer was expressed in plaque forming units (PFU).
The plates were incubated for at 37 °C, 5% CO2 for 24 h. The plates were evaluated with quantitative PCR.
At the end of the infection (24 h for HSV-2, 48 h for C. trachomatis) the supernatants of the cells were removed and the cells were washed with PBS twice, and finally 100 μL in sucrose-phosphate-glutamic acid buffer (SPG) was measured into the wells, and the cells were subjected to two freeze-thaw cycles. The mixed cell lysates were used as a template in the qPCR as described previously. Briefly, qPCR was performed with the 5× HOT FIREPol®EvaGreen®qPCR Supermix (Solis Solis BioDyne, Tartu, Estonia) and C. trachomatis pykF gene specific primer pair in a Bio-Rad CFX96 real time PCR system. The pykF primer sequences were the following: 5′-[…]-3′, 5′-[…]-3′. For each sample the cycle threshold (Ct) number corresponding to the cycle where the amplification curve crossed the base line was determined. For the quantitative measurement of HSV-2 growth a similar qPCR method was used as was applied for C. trachomatis. The HSV-2 gD2 gene specific primer pair (gD2-F: 5′-[…]-3′, gD2-R 5′-[…]-3′ was used with a 69 °C annealing-extension temperature.

By IC50 is commonly meant the concentration that inhibits the measured activity by half. In general, IC90 refers to the point of the concentration-response curve where the effect stands at 90%.

For `C1N2CN3CN1CP(C2)C3.Cc1ccc(C(C)C)cc1.F[P-](F)(F)(F)(F)F.O=C(C=C([O-])C(F)(F)F)c1ccc(Cl)cc1.[Ru+2]` [complex 8], the “maximum non-toxic concentration, HeLa 229” value in series [1] was found to be 50 µM. Further, the IC50 with ovarian carcinoma CH1 was 8 µM. In addition, the “chlamydial growth difference between treated and untreated cells” value in the series on Chlamydia trachomatis is “ca. 155 fold”.
As for `Cc1ccc(C(C)C)cc1.[Cl-].[O-]n1ccccc1=S.[Ru+2]` [complex 1], the EC50 in series [2] is 3.8 µM.
For the molecule `C1N2CN3CN1CP(C2)C3.Cc1ccc(C(C)C)cc1.F[P-](F)(F)(F)(F)F.[O-]n1ccc2ccccc2c1=S.[Ru+2]` [complex 4], in series [3], the “concentration up to which inactive, cancer cell line panel” value was over 50 µM.
With `Cc1ccc(C(C)C)cc1.O=C(C=C([O-])C(F)(F)F)c1ccc(Cl)cc1.[Cl-].[Ru+2]` [complex 7], in series [4] (HSV-2 MOI 0.2, 24 h), the HSV-2 growth difference entry is “ca. 237 fold”. Moreover, the “qPCR cycles difference (dCT)” value in series [4] (HSV-2 MOI 0.2, 24 h) was ~ 7.89 qPCR cycles. Further, the IC50 in series [4] (MOI 0.2, 24 h, qPCR, read-out: IC50 HSV-2 growth) is about 25 µM; with ovarian carcinoma CH1, 17 µM. For the same molecule, in series [4] (MOI 0.2, 24 h, qPCR, read-out: IC90 HSV-2 growth), the IC90 was 50 to 100 µM. The “maximum non-toxic concentration, HeLa 229” value in series [1] was determined as 50 µM. Further, the “chlamydial growth difference between treated and untreated cells” value in the series on Chlamydia trachomatis is “ca. 101 fold”.
